The test system of series [1] is E. coli. The experiment in a line: MIC, E. coli. It counts as cell-based, Escherichia coli BW25113. Particulars: E. coli, broth microdilution; for MIC: Escherichia coli, read-out: Antibiotic MIC.
The subject of series [2] is P. aeruginosa. The experiment in a line: MIC, P. aeruginosa. It counts as cell-based, Pseudomonas aeruginosa. The method, then:
(§1) The appropriate volume of an MM stock at 8 mM necessary to achieve a concentration ranging from 0.3125 to 40 μM was pipetted into a 2 mL microcentrifuge tube to which 1 mL of cell suspension prepared as previously described was added. Corresponding negative controls (DMSO only) were prepared in the same way. The mixture was gently mixed by pipetting and incubated in the dark at 30 or 37 ° C, depending on the strain, for 30 min with agitation (220 rpm). Afterward, MM- or DMSO-treated cells were dispensed in one well of a 24-well plate positioned in the center of the light beam (405 nm LED Light, Prizmatix, UHP—F-5-405) placed at the appropriate distance necessary to achieve the desired light intensity of 304 mW cm-2, 146 mW cm2 or 87 mW cm2, as measured with a handheld digital power meter console coupled to an S415C thermal power sensor head (Thorlabs, Newton, MA, USA). The temperature during irradiation was monitored using a thermocouple probe (Model SC-TT-K-30-36-PP; Omega Engineering, Inc., Stanford, CT, USA). Samples were agitated during irradiation. Dark controls were prepared as previously described except that no irradiation was provided.
(§2) For MIC determination, samples treated with a range of concentrations of the different MM, as described above and were irradiated one at a time for 5 min at 146 mW cm^−2 (43.8 J cm^−2), after which irradiated aliquots were collected and inoculated into 1 mL MHB in a 2 mL microcentrifuge tube. Samples were incubated overnight at 30 or 37 ° C, depending on the strain, without agitation. Corresponding non-irradiated samples and negative controls (without bacteria) were also included. The following day, cultures were inspected for growth and the MIC was identified. The experimental procedure used to determine the MIC of visible light-activated MMs is schematically depicted in FIG. 26.

Series [3] has as its system C. albicans. The experiment in a line: Killing of C. albicans by MM 1 in de-energized, inhibited, uncoupled cells or with scavengers. Type of series: cell-based, Candida albicans. The note with it: for effect of scavenger on MM-induced killing: MM 1 2×MIC. The method, then:
FIG. 8: Survival curves of de-energized versus exponential, fully energized cells of C. albicans treated with visible-light-activated MM 1 (2×MIC). Energy depletion of C. albicans was achieved by resuspending cells in de-energization buffer (1 μM antimycin A, 5 mM 2-deoxy-D-glucose, 50 mM HEPES buffer, pH 7.0) for 3 h, as described for the determination of efflux pump activity in Example 1. Survival curves were generated according to the procedure described in Example 1 for time-kill assays. The dashed line indicates the detection limit of the method. The results are expressed as the average of at least three independent replicates±the standard error of the mean.
FIG. 9: Effect of pre-treatment with drugs targeting different individual components of the electron transport chain (see table inset) on the killing of C. albicans by light-activated MM 1 (2×MIC). Survival curves were generated according to the procedure described in Example 1 for time-kill assays. The dashed line indicates the detection limit of the method. The results are expressed as the average of at least three independent replicates±the standard error of the mean.
FIG. 10: Effect of pre-treatment with the uncoupling agents carbonyl [COMPOUND LEFT OUT] 4-(trifluoromethoxy)phenylhydrazone (FCCP) and carbonyl [COMPOUND LEFT OUT] 3-chlorophenylhydrazone (CCCP) on the killing of C. albicans by light-activated MM 1 (2×MIC). Survival curves were generated according to the procedure described in Example 1 for time-kill assays. The dashed line indicates the detection limit of the method. The results are expressed as the average of at least three independent replicates #the standard error of the mean.
Survival curves were generated according to the procedure described in Example 1 for time-kill assays. The dashed line indicates the detection limit of the method. The results are expressed as the average of at least three independent replicates±the standard error of the mean.
FIGS. 12A-12C show the effect of growth in the presence of different reactive oxygen species (ROS) scavengers and the iron scavenger 2,2′-dipyridyl (DP) on MM 1-induced killing of C. albicans. […] The results are expressed as the average of at least three independent replicates±the standard error of the mean. (FIG. 12B) Growth curves of C. albicans in the presence and absence of the iron scavenger DP, determined by monitoring the absorbance at 630 nm over time in a microplate reader. […] (FIG. 12C) Time profiles of mitochondrial ROS levels in C. albicans grown with and without DP after treatment with visible-light-activated MM 1 (2×MIC), detected with the MitoROS™ 580 fluorescent probe, according to the experimental procedure described in Example 1. […]

Series [4] deals with E. coli. Put plainly: Checkerboard interaction with antibiotics (MIC, FIC index), E. coli. It counts as cell-based, Escherichia coli. How it is done:
To evaluate synergy between conventional antibiotics and MM in E. coli, the fractional inhibitory concentration (FIC) index (Hall et al., 1983) was determined using a modified checkerboard microtiter test in an 8-by-8 well configuration. Briefly, E. coli cell suspensions were prepared as described for MIC determination with an increasing concentration (0.1-40 μM) of the different MMs, followed by irradiation for 5 min at 146 mW cm^−2. […] The FIC was calculated after dividing the MIC of each antibiotic in combination with different MM by the MIC of the antibiotic alone. The FIC index, obtained by adding both FICs, was interpreted as indicating a synergistic effect if it was ≤0.5, as additive or indifferent if it was >0.5 and ≤2.0, and as antagonistic if it was >2.0 (Hall et al., 1983).

Series [5] relates to A. baumannii. The experiment in a line: MIC, A. baumannii. It counts as cell-based, Acinetobacter baumannii. Particulars: Acinetobacter baumannii, read-out: Antibiotic MIC. The method, then: as §1, §2
Series [6] in a line: Estimated rotation rate after light activation. Particulars: for estimated rotation rate after light activation: based on known motors with similar core skeletons.
In series [7] the test system is S. aureus. The experiment in a line: MIC, S. aureus. Particulars: S. aureus, broth microdilution. Type of series: cell-based, Staphylococcus aureus. The method, then:
as §1, §2
In general terms: Broth dilution looks for growth in wells or tubes with falling amounts of substance.

In series [8] the test system is C. albicans. The experiment in a line: MIC, visible-light-activated MMs and conventional antifungals, C. albicans. Type of series: cell-based, Candida albicans (ATCC 18804). The note with it: Candida albicans, read-out: MIC of antifungal agent. How it is done:
C. albicans cell suspensions were incubated with increasing concentrations of MMs and irradiated with 405-nm light at 292 mW cm^−2 for 5 min (87.6 J cm^−2). The minimum inhibitory concentration (MIC) was defined as the MM concentration resulting in no visible fungal growth after irradiation with 87.6 J cm^−2 of 405-nm light.
Cell suspensions for susceptibility testing (MMs and conventional antifungals) were prepared per the Clinical & Laboratory Standards Institute (CLSI) guidelines (CLSI, 2017; CLSI, 2008). Before testing, yeasts (C. albicans and S. cerevisiae) were sub-cultured in Sabouraud Dextrose Agar-Emmons Modification (SDAE) plates and grown for 24 h at 30 °C. Five independent colonies from 24-h-old plates were collected and diluted to ~10^4 colony forming units (CFU) per mL in sterile saline (CLSI, 2017). Molds (A. fumigatus and the dermatophytes T. rubrum and M. gypseum) were sub-cultured on SDAE medium and incubated for 7 days at 28 °C. Conidia were recovered by covering the plates with sterile distilled water and scraping the colonies. The suspensions were filtered (8-μm pore size) and diluted in saline to ~10^4 CFU mL^−1 (Santos and Hamdan, 2005).
After a 30-min incubation in the dark, cell suspensions were transferred to small, sterilized glass beakers, which were then placed in a water bath. Each sample was irradiated with 405-nm light at 292 mW cm^−2 for 5 min, corresponding to a light dose of 87.6 J cm^−2, determined using an S415C thermal power sensor (Thorlabs, Newton, MA, USA). During irradiation, the cell suspensions were agitated with a small metal stirrer. A thermocouple probe (model SC-TT-K-30-36-PP; Omega Engineering, Inc., Stanford, CT, USA) was used to monitor the temperature during irradiation. Irradiated cell suspensions were inoculated in 3-(N-morpholino) propanesulfonic acid (MOPS)-buffered Roswell Park Memorial Institute Medium (RPMI) 1640 (pH 7.0). Tubes were incubated at 30 ° C for 48 h (yeasts) and 28 ° C for 7 days (molds). The antifungal or MM concentration resulting in no visible growth was defined as the minimum inhibitory concentration (MIC) (CLSI, 2017; CLSI, 2008). Similarly prepared cell suspensions were used to determine the MIC of conventional antifungals.

Here are results for 15 compounds from patent US20260355318A1, “MOLECULAR MACHINES FOR TREATMENT OF CANCER, FUNGAL INFECTIONS, OR BACTERIAL INFECTIONS” (priority 2022, published 2026).

In brackets after ≈: the same amount, converted by molar mass. Bounds are passed on as bounds.

Turning to `COc1cc(Cc2cnc(N)nc2N)cc(OC)c1OC` [Trimethoprim, reference compound], the MIC (as a rule, the lowest concentration found to suppress growth) in series [1] was 1 µg/mL (≈ 3.44 µM); in series [2] (Pseudomonas aeruginosa, read-out: Antibiotic MIC) it was 128 µg/mL (≈ 441 µM).

Regarding `c1ccc(-c2ccccn2)nc1` [2,2′-dipyridyl], in series [3], the “effect of scavenger on MM-induced ROS generation” value is listed as “did not impact MM-induced ROS generation” and the “effect of scavenger on MM-induced killing” value is reported as “mitigation of MM-induced killing”.

Consider `CC1(C)S[C@@H]2[C@H](NC(=O)[C@H](N)c3ccccc3)C(=O)N2[C@H]1C(=O)O` [Ampicillin, reference compound], for which the minimal inhibitory concentration (MIC) in series [1] was 0.063 µg/mL (≈ 0.18 µM).

For `CO[C@@H]1[C@@H](OC(N)=O)[C@@H](O)[C@H](Oc2ccc3c(O)c(NC(=O)c4ccc(O)c(CC=C(C)C)c4)c(=O)oc3c2C)OC1(C)C` [Novobiocin], the MIC came out at 64 µg/mL (≈ 104 µM) in series [1] and 0.48 µg/mL in series [4] (Escherichia coli, 18 h, read-out: antibiotic MIC alone). For the same compound, the “potentiation of antibiotic by MM pre-treatment” value in series [4] (E. coli) is on record as “up to 64 fold”. For the same compound, in series [4] (E. coli, MM and novobiocin), the “FIC index with MM” value was at most 0.5. Further, the “antibiotic MIC after pre-treatment with MM 1” value in series [4] (E. coli, light-activated MM 1) was 0.0075 µg/mL. Further, the “antibiotic MIC after pre-treatment with MM 5” value in series [4] (E. coli, light-activated MM 5) was 0.0075 µg/mL. The “antibiotic MIC after pre-treatment with MM 6” value in series [4] (E. coli, light-activated MM 6) came out at 0.015 µg/mL. Take `CN(C)[C@@H]1C(O)=C(C(N)=O)C(=O)[C@@]2(O)C(O)=C3C(=O)c4c(O)cccc4[C@@](C)(O)[C@H]3C[C@@H]12` [Tetracycline, reference compound]: the MIC in series [5] was determined as 8 µg/mL (≈ 18 µM). In the case of `O=C(O)c1cn(C2CC2)c2cc(N3CCNCC3)c(F)cc2c1=O` [Ciprofloxacin, reference compound], in series [1], the MIC is 0.008 µg/mL (≈ 0.0241 µM). With `CC1(C)CC(NC(=O)C[P+](c2ccccc2)(c2ccccc2)c2ccccc2)CC(C)(C)N1[O]` [MitoTEMPO], in series [3], the “effect of scavenger on MM-induced ROS generation” value is given as “reduced ROS generation” and the “effect of scavenger on MM-induced killing” value was “did not affect survival following MM treatment”. For `C[C@@H]1Cc2ccc3c(NCCN)cccc3c2C1=C1c2ccccc2Sc2ccccc21` (racemic) [DL-5-903], the “estimated rotation rate after light activation” value in series [6] was 3 MHz.

Take Gentamicin [reference compound]: the “Antibiotic MIC” value in series [1] was found to be 1 μg per mL; in series [7], 2 μg per mL; in series [2] (P. aeruginosa, broth microdilution) it was 1 μg per mL.

In the case of `C[C@@H]1Cc2ccc3c(NCCN(C)C)cccc3c2C1=C1c2ccccc2Sc2ccccc21` (racemic) [DL-5-901], in series [6], the “estimated rotation rate after light activation” value is on record as 3 MHz. For the compound `Nc1nc(=O)[nH]cc1F` [5-Fluorocytosine (5-FC), 5-Fluorocytosine], the MIC in series [8] was 1 µg/mL. For the compound `COc1cc2c(c3ccccc13)/C(=C1\c3ccccc3Sc3ccc(NCCN(C)C)cc31)[C@H](C)C2` (racemic) [DL-5-872], in series [6], the “estimated rotation rate after light activation” value was 3 MHz.

With `OC(Cn1cncn1)(Cn1cncn1)c1ccc(F)cc1F` [Fluconazole (FLC), Fluconazole], the MIC in series [8] is 0.5 µg/mL.

In the case of `C[C@@H]1Cc2ccc3c(N(C)CCN(C)C)cccc3c2C1=C1c2ccccc2Sc2ccccc21` (racemic) [DL-5-902], in series [6], the “estimated rotation rate after light activation” value was 3 MHz. Regarding `C[C@@H]1CSc2ccc3ccccc3c2/C1=C1\c2ccccc2Sc2cc(NCCN(C)C)ccc21` [ARV-3-202, reference compound], in series [6], the “estimated rotation rate of slow MM” value is given as ~ 10^−6 Hz.
